Source: US20060166867A1, “Novel conjugates of polysaccharides and uses thereof” (priority 2003, published 2006)
Where “and” joins values, the source holds several entries; their conditions need not be identical. Equal entries are not always repeated. Where two headings read alike, the source gives them in different places.

What was measured:
Enterobacter aerogenes = conditions: Gram negative clinical isolate
[1] = tested on: Moraxella catarrhalis ATCC 25238 (Branhamella); conditions: Gram negative reference strain
Serratia marcescens = conditions: Gram negative clinical isolate
[2] = tested on: K. pneumoniae-ESBL positive; conditions: Gram negative clinical isolate
E. Coli-ESBL negative = conditions: Gram negative clinical isolate
[3] = tested on: Enterococcus faecalis ATCC 29212; conditions: Gram positive reference strain
[4] = tested on: A. baumannii-amikacin^s, meropenem^s; conditions: Gram negative clinical isolate
S. epidermidis MSSE = conditions: Gram positive clinical isolate
E. coli U3075921 = test: MIC, broth microdilution; type: cell-based, Escherichia coli; conditions: clinical isolate, Table 7
Method: Minimal Inhibition Concentration (MIC) measurements: The Minimal Inhibitory Concentration (MIC) was generally determined by the Broth Microdilution method (based on the protocol described in Clinical and Laboratory Standard Institute (CLSI) NCCLS (2003) M7-A6), as follows:
A stock solution of each of the tested compounds was prepared by diluting the compound to a 2,560 μg/ml concentration with an appropriate solvent. The stock solution was then serially 2-fold diluted in 96-well microdilution trays using Cation-Adjusted Mueller-Hinton Broth (CAMHB) until reaching the desired range of concentrations, whereas each well contained double the final working concentration. Each row further had one growth control well (medium+inoculum only), and one sterility control well (medium+tested compound). Plates were stored at −70° C. until used.
The tested microorganisms were used as fresh overnight cultures on blood agar (for gram-positive organisms) or MacConkey agar (for gram-negatives). A standardized inoculum suspension was prepared by the direct colony suspension method, using sterile saline (equivalent to a 0.5 McFarland standard).
Thus, 50 μl of the inoculum suspension were added to each tested well (except for the sterility control well), and […] was performed during 18-24 hours (depending on the tested microorganism or compound) at 35° C.

in vitro = type: cell-based; conditions: human; Table 4; tryphan blue exclusion assay for MT2 cells; read-out: Cytotoxicity
How it was run: (§1)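 MT2 or cMAGI reporter cells infected with wild-type or resistant HIV-1 at 0.2-0.5 MOI for 4 days at 37° C with varying pAAC concentrations. Infection scored by counting blue-stained cMAGI cells and by microscopic syncytium assessment in MT2; cytotoxicity by trypan blue exclusion, as % dead cells.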

[5] = tested on: HIV-1 NeoR6 resistant virus; type: cell-based; conditions: read-out: EC50 NeoR6^Res; Table 4
How it was run: (§2)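 cMAGI β-galactosidase reporter cells or MT2 cells infected at 0.2-0.5 MOI with wild-type or resistant HIV-1 and incubated 4 days at 37 °C with varying compound concentrations. Infection scored by counting X-gal-stained blue cMAGI cells; MT2 syncytium formation assessed microscopically, cytotoxicity by trypan blue exclusion.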

[6] = tested on: HIV-1 AZT resistant virus; type: cell-based; conditions: Table 4; read-out: EC50 AZT^Res
How it was run: as §2

[7] = tested on: HIV-1 clinical isolate Clade A; type: cell-based
How it was run: as §2

[8] = tested on: Acinetobacter baumannii ATCC 19606; conditions: Gram negative reference strain
[9] = tested on: Acinetobacter baumannii ATCC 19606; test: microbe, parasite or virus in culture; conditions: ATCC19606, read-out: Minimum Inhibitory Concentration
[10] = tested on: K. pneumoniae-ESBL positive; test: microbe, parasite or virus in culture; conditions: Klebsiella pneumoniae, read-out: Minimum Inhibitory Concentration
S. aureus MRSA = test: microbe, parasite or virus in culture; conditions: Staphylococcus aureus, read-out: Minimum Inhibitory Concentration
[11] = tested on: A. baumannii-amikacin^s, meropenem^s; test: microbe, parasite or virus in culture; conditions: Acinetobacter baumannii, read-out: Minimum Inhibitory Concentration
Enterobacter cloacae = test: microbe, parasite or virus in culture; conditions: read-out: Minimum Inhibitory Concentration
S. epidermidis MRSE = test: microbe, parasite or virus in culture; conditions: Staphylococcus epidermidis, read-out: Minimum Inhibitory Concentration
MT2 cells = test: in vitro; type: cell-based; conditions: human
How it was run: as §1

E. Coli-ESBL positive = test: microbe, parasite or virus in culture; conditions: Escherichia coli, read-out: Minimum Inhibitory Concentration
Strep. Pyogenes (gr. A) = test: MIC, broth microdilution; type: cell-based; conditions: Streptococcus pyogenes; Gram positive clinical isolate; read-out: Minimum Inhibitory Concentration
K. pneumoniae B2511 = test: MIC, broth microdilution; type: cell-based; conditions: Klebsiella pneumoniae, Gram negative clinical isolate, read-out: Minimum Inhibitory Concentration

Compound	Minimum Inhibitory Concentration (Enterobacter aerogenes)	Minimum Inhibitory Concentration [1]	Minimum Inhibitory Concentration (Serratia marcescens)	Minimum Inhibitory Concentration [2]	Minimum Inhibitory Concentration (E. Coli-ESBL negative)	Minimum Inhibitory Concentration [3]	Minimum Inhibitory Concentration [4]	Minimum Inhibitory Concentration (S. epidermidis MSSE)	Minimum Inhibitory Concentration (E. coli U3075921)	EC50 [5] [nM]	EC50 [6] [nM]	Minimum Inhibitory Concentration [8]	other results
CC(=O)N[C@H](CCCNC(=N)N)C(=O)N[C@H](CCCNC(=N)N)C(=O)N[C@H](CCCNC(=N)N)C(=O)N[C@H](CCCNC(=N)N)C(=O)N[C@H](CCCNC(=N)N)C(=O)N[C@H](CCCNC(=N)N)C(=O)N[C@H](CCCNC(=N)N)C(=O)N[C@H](CCCNC(=N)N)C(=O)N[C@H](CCCNC(=N)N)C(=O)O [Compound 12, D-Arg-9-mer-NHAc]	128.0 mg/liter and 63.82 μM	16.0 mg/liter and 7.98 μM	> 256.0 mg/liter and 127.64 μM	48.0 mg/liter and 23.93 μM	128.0 mg/liter and 63.82 μM	64.0 mg/liter and 31.91 μM	256.0 mg/liter and 127.64 μM	8.0 mg/liter and 3.99 μM	96.0 mg/L	2000 ± 1200	9700 ± 5900	> 256.0 mg/liter and 127.64 μM	CC50 (in vitro): 150000 nM; EC50 ([7]; clinical isolate Clade A): 2200 ± 300 nM
NCC1OC(OC2C(CO)OC(OC3C(O)C(N)CC(N)C3OC3OC(CN)C(O)C(O)C3N)C2O)C(N)C(O)C1O (stereo not shown) [Neomycin]	–	–	–	–	–	–	–	–	–	–	–	–	MIC [9]: 6 µg/mL and 6.6 µM; MIC [10]: 1.5 µg/mL and 1.65 µM; MIC (S. aureus MRSA): 1 µg/mL and 1.1 µM; MIC [11]: 3 µg/mL and 3.3 µM; MIC (Enterobacter cloacae): 4 µg/mL and 4.4 µM; MIC (S. epidermidis MRSE): 0.5 µg/mL and 0.55 µM; Cytotoxicity (MT2 cells): >300 µM; MIC (E. Coli-ESBL positive): 4 µg/mL and 4.4 µM; MIC (Strep. Pyogenes (gr. A)): 16 µg/mL and 17.6 µM; MIC (K. pneumoniae B2511): 1.5 µg/mL and 1.65 µM
D-Arg-9-mer-neomycin [Compound 14]	32.0 mg/liter and 11.02 μM	8.0 mg/liter and 2.76 μM	64.0 mg/liter and 22.05 μM	32.0 mg/liter and 11.02 μM	16.0 mg/liter and 5.51 μM	128.0 mg/liter and 44.11 μM	128.0 mg/liter and 44.11 μM	0.52 µM	48.0 mg/liter and 16.54 μM	2000 ± 500	6600 ± 5900	> 256.0 mg/liter and 88.22 μM	EC50 ([7]; Table 4, read-out: EC50 Clade A): 2100 ± 400 nM
